For ten compounds, IC50 and Ki results are on record in ChEMBL document CHEMBL1909046, “DrugMatrix in vitro pharmacology data”.

The structures appear in SMILES notation.

The first assay deals with T1, Muscarinic acetylcholine receptor M4 (Homo sapiens, UniProt P08173).
T1 sequence (P08173 whole entry): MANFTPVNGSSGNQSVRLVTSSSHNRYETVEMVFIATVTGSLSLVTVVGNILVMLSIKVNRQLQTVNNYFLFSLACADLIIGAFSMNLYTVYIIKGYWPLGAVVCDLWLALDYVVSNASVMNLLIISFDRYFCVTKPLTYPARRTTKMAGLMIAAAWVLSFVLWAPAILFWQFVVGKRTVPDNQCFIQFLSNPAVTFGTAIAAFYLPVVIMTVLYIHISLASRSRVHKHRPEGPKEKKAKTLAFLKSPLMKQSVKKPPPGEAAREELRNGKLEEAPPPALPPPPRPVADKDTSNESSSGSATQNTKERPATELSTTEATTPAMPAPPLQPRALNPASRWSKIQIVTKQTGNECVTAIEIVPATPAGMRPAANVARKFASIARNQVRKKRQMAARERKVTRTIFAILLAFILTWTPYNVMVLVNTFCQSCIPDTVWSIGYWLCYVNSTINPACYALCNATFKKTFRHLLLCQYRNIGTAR
Test: not given
To be noted: cho-k1. Type of assay: cell membranes, CHO-K1, Membrane.
Turning to `Cc1nnc2n1-c1ccc(Cl)cc1C(c1ccccc1)=NC2` [ALPRAZOLAM], the IC50 entry was “Not Active”.
On the same count and under the same terms, as for `Cn1c(=O)c2[nH]cnc2n(C)c1=O.Cn1c(=O)c2[nH]cnc2n(C)c1=O.NCCN` [AMINOPHYLLINE], the entry is “Not Active”; as for `CCC1(CCC(C)C)C(=O)NC(=O)NC1=O` [AMOBARBITAL], “Not Active”.
For the compound `CC1(C)S[C@@H]2[C@H](NC(=O)[C@H](N)c3ccccc3)C(=O)N2[C@H]1C(=O)O` [AMPICILLIN], the IC50 result is listed as “Not Active”.
As for `COc1ccc(C2C(=O)c3ccccc3C2=O)cc1` [ANISINDIONE], the IC50 entry is reported as “Not Active”.
Take `O=C1O[C@H]([C@@H](O)CO)C(O)=C1O` [ASCORBIC ACID]: the IC50 result is given as “Not Active”.
In the case of `CC(C(=O)O)c1ccc2oc(-c3ccc(Cl)cc3)nc2c1` (stereo not given) [BENOXAPROFEN], the IC50 entry is listed as “Not Active”.
The same measure, in the same setting: for `COc1ccc2cc3[n+](cc2c1OC)CCc1cc2c(cc1-3)OCO2.[Cl-]` [BERBERINE CHLORIDE] the value was “Not Active”; for `O=C(O)CCNC(=O)c1ccccc1` [BETAMIPRON], “Not Active”.
Consider `CC(=O)Oc1ccc(C(c2ccc(OC(C)=O)cc2)c2ccccn2)cc1` [BISACODYL], for which the IC50 entry was “Not Active”.

The target in another assay is Prostaglandin G/H synthase 1 (Homo sapiens, UniProt P23219). Description: biochemical. Type of assay: tissue-based, Platelet. The conditions noted are these: platelet.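 Also: inhibition of COX-1 enzyme activity, with arachidonic acid supplied as substrate; in other assays of this panel Not Active means under 50% inhibition at 10 µM.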
Chain of Prostaglandin G/H synthase 1 (P23219 whole entry): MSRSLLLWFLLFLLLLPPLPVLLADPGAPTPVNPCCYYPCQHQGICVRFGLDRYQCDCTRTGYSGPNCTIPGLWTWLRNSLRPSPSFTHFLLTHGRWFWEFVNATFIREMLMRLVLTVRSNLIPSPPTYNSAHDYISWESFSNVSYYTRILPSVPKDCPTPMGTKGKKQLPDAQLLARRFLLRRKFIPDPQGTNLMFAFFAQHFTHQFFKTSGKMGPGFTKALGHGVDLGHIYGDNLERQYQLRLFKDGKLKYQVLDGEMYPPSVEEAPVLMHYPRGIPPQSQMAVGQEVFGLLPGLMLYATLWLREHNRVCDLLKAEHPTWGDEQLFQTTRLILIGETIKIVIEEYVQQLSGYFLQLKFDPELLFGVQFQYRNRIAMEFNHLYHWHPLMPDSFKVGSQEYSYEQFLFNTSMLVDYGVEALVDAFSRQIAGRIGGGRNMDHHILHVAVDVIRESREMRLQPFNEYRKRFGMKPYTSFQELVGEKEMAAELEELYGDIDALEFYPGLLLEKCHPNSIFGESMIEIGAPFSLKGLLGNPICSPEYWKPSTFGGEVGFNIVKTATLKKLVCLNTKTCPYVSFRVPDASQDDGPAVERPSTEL
Turning to `Cc1nnc2n1-c1ccc(Cl)cc1C(c1ccccc1)=NC2` [ALPRAZOLAM], the IC50 result is “Not Active”.
With `Cn1c(=O)c2[nH]cnc2n(C)c1=O.Cn1c(=O)c2[nH]cnc2n(C)c1=O.NCCN` [AMINOPHYLLINE], the IC50 entry is “Not Active”.
For the compound `CCC1(CCC(C)C)C(=O)NC(=O)NC1=O` [AMOBARBITAL], the IC50 result is reported as “Not Active”.
Regarding `CC1(C)S[C@@H]2[C@H](NC(=O)[C@H](N)c3ccccc3)C(=O)N2[C@H]1C(=O)O` [AMPICILLIN], the IC50 result is given as “Not Active”.
Same read-out and setting: for `COc1ccc(C2C(=O)c3ccccc3C2=O)cc1` [ANISINDIONE] the value was “Not Active”; for `O=C1O[C@H]([C@@H](O)CO)C(O)=C1O` [ASCORBIC ACID], “Not Active”.
With `CC(C(=O)O)c1ccc2oc(-c3ccc(Cl)cc3)nc2c1` (stereo not given) [BENOXAPROFEN], the IC50 entry is listed as “Not Active”.
Turning to `COc1ccc2cc3[n+](cc2c1OC)CCc1cc2c(cc1-3)OCO2.[Cl-]` [BERBERINE CHLORIDE], the IC50 entry was “Not Active”.
In the case of `O=C(O)CCNC(=O)c1ccccc1` [BETAMIPRON], the IC50 entry is “Not Active”.
Consider `CC(=O)Oc1ccc(C(c2ccc(OC(C)=O)cc2)c2ccccn2)cc1` [BISACODYL], for which the IC50 result was “Not Active”.

Another assay concerns the target Glycine receptor (Rattus norvegicus, UniProt P22771+P24524+P07727+P20781). Also: in other assays of this panel Not Active means under 50% inhibition at 10 µM.
Test: not given
Type of assay: cell membranes, Wistar, Spinal cord, Membrane.
Conditions: not given
`Cc1nnc2n1-c1ccc(Cl)cc1C(c1ccccc1)=NC2` [ALPRAZOLAM]: the IC50 entry was “Not Active”.
On to `Cn1c(=O)c2[nH]cnc2n(C)c1=O.Cn1c(=O)c2[nH]cnc2n(C)c1=O.NCCN` [AMINOPHYLLINE], for which the IC50 entry was “Not Active”.
For `CCC1(CCC(C)C)C(=O)NC(=O)NC1=O` [AMOBARBITAL], the IC50 entry is “Not Active”.
Regarding `CC1(C)S[C@@H]2[C@H](NC(=O)[C@H](N)c3ccccc3)C(=O)N2[C@H]1C(=O)O` [AMPICILLIN], the IC50 entry is reported as “Not Active”.
Regarding `COc1ccc(C2C(=O)c3ccccc3C2=O)cc1` [ANISINDIONE], the IC50 result is reported as “Not Active”.
As to `O=C1O[C@H]([C@@H](O)CO)C(O)=C1O` [ASCORBIC ACID], the IC50 entry was “Not Active”.
For the compound `CC(C(=O)O)c1ccc2oc(-c3ccc(Cl)cc3)nc2c1` (stereo not given) [BENOXAPROFEN], the IC50 result is recorded as “Not Active”.
On to `COc1ccc2cc3[n+](cc2c1OC)CCc1cc2c(cc1-3)OCO2.[Cl-]` [BERBERINE CHLORIDE], for which the IC50 entry was “Not Active”.
Regarding `O=C(O)CCNC(=O)c1ccccc1` [BETAMIPRON], the IC50 result is reported as “Not Active”.
As for `CC(=O)Oc1ccc(C(c2ccc(OC(C)=O)cc2)c2ccccn2)cc1` [BISACODYL], the IC50 entry is “Not Active”.

For the next assay, the target named is Matrix metalloproteinase-9 (Homo sapiens, UniProt P14780). Description: biochemical. The format is cell-based.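 Also: inhibition of isolated MMP-9 enzyme activity toward a synthetic peptide substrate, from the DrugMatrix protease screening panel; in other assays of this panel Not Active means under 50% inhibition at 10 µM.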
Chain of Matrix metalloproteinase-9 (P14780 whole entry): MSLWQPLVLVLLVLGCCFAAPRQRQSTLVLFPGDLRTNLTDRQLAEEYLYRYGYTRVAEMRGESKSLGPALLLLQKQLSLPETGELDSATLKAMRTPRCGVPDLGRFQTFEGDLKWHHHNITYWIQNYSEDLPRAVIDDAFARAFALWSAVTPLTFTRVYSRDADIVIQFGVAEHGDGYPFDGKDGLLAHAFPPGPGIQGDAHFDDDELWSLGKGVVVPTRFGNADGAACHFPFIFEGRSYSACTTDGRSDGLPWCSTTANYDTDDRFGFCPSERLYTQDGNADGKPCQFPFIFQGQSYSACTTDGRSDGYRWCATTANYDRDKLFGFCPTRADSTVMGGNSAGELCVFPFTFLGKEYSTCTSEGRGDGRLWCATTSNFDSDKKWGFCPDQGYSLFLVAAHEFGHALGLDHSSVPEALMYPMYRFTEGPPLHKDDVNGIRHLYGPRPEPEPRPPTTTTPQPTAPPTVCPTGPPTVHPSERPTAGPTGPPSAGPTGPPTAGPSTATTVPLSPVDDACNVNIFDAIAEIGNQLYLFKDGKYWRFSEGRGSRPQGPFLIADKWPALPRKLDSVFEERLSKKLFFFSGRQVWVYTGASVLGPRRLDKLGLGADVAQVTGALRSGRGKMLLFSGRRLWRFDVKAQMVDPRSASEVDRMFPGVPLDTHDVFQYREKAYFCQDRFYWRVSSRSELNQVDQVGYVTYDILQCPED
Conditions: not given
`Cc1nnc2n1-c1ccc(Cl)cc1C(c1ccccc1)=NC2` [ALPRAZOLAM]: the IC50 entry is “Not Active”.
`Cn1c(=O)c2[nH]cnc2n(C)c1=O.Cn1c(=O)c2[nH]cnc2n(C)c1=O.NCCN` [AMINOPHYLLINE]: the IC50 entry is listed as “Not Active”.
Consider `CCC1(CCC(C)C)C(=O)NC(=O)NC1=O` [AMOBARBITAL], for which the IC50 result is recorded as “Not Active”.
With `CC1(C)S[C@@H]2[C@H](NC(=O)[C@H](N)c3ccccc3)C(=O)N2[C@H]1C(=O)O` [AMPICILLIN], the IC50 entry is “Not Active”.
On to `COc1ccc(C2C(=O)c3ccccc3C2=O)cc1` [ANISINDIONE], for which the IC50 entry is reported as “Not Active”.
As for `O=C1O[C@H]([C@@H](O)CO)C(O)=C1O` [ASCORBIC ACID], the IC50 entry was “Not Active”.
For `CC(C(=O)O)c1ccc2oc(-c3ccc(Cl)cc3)nc2c1` (stereo not given) [BENOXAPROFEN], the IC50 result is reported as “Not Active”.
The same measure, in the same setting: as for `COc1ccc2cc3[n+](cc2c1OC)CCc1cc2c(cc1-3)OCO2.[Cl-]` [BERBERINE CHLORIDE], the entry is “Not Active”; as for `O=C(O)CCNC(=O)c1ccccc1` [BETAMIPRON], “Not Active”.
In the case of `CC(=O)Oc1ccc(C(c2ccc(OC(C)=O)cc2)c2ccccn2)cc1` [BISACODYL], the IC50 entry is “Not Active”.

The target of the next assay is T2, Alpha-1D adrenergic receptor (Homo sapiens, UniProt P25100). Also: in other assays of this panel Not Active means under 50% inhibition at 10 µM.
T2 sequence (P25100 whole entry): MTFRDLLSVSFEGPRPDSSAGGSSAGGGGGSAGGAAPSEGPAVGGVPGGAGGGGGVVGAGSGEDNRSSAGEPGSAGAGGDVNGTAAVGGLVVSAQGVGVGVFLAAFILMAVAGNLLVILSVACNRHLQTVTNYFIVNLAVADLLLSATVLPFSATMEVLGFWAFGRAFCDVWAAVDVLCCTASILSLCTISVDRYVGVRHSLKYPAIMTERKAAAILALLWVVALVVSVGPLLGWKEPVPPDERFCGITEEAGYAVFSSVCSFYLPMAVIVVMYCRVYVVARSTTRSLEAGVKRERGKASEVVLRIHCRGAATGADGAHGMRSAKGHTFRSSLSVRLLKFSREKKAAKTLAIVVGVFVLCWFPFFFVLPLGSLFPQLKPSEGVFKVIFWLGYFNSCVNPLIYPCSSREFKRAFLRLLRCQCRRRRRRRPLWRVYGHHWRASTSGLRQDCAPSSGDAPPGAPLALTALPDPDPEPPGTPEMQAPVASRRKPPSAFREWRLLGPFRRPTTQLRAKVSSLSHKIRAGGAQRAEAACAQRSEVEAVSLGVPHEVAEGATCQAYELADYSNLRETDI
Test: not given
The format is cell membranes, HEK293, Membrane. To be noted: hek293.
With `Cc1nnc2n1-c1ccc(Cl)cc1C(c1ccccc1)=NC2` [ALPRAZOLAM], the IC50 result is given as “Not Active”.
Turning to `Cn1c(=O)c2[nH]cnc2n(C)c1=O.Cn1c(=O)c2[nH]cnc2n(C)c1=O.NCCN` [AMINOPHYLLINE], the IC50 entry is “Not Active”.
The same measure, in the same setting: for `CCC1(CCC(C)C)C(=O)NC(=O)NC1=O` [AMOBARBITAL] the value was “Not Active”.
As for `CC1(C)S[C@@H]2[C@H](NC(=O)[C@H](N)c3ccccc3)C(=O)N2[C@H]1C(=O)O` [AMPICILLIN], the IC50 entry is given as “Not Active”.
Turning to `COc1ccc(C2C(=O)c3ccccc3C2=O)cc1` [ANISINDIONE], the IC50 entry is “Not Active”.
On the same count and under the same terms, as for `O=C1O[C@H]([C@@H](O)CO)C(O)=C1O` [ASCORBIC ACID], the entry is “Not Active”; as for `CC(C(=O)O)c1ccc2oc(-c3ccc(Cl)cc3)nc2c1` (stereo not given) [BENOXAPROFEN], “Not Active”.
The same measure, in the same setting: for `COc1ccc2cc3[n+](cc2c1OC)CCc1cc2c(cc1-3)OCO2.[Cl-]` [BERBERINE CHLORIDE] the value was “Not Active”; for `O=C(O)CCNC(=O)c1ccccc1` [BETAMIPRON], “Not Active”.
Regarding `CC(=O)Oc1ccc(C(c2ccc(OC(C)=O)cc2)c2ccccn2)cc1` [BISACODYL], the IC50 result is “Not Active”.

System in the next assay: not listed separately
Description: DRUGMATRIX: GABAA, Muscimol, Central radioligand binding (ligand: [3H] Muscimol). Type of assay: cell membranes, Rattus norvegicus, Wistar, Brain, Membrane. To be noted: Not Active = under 50% inhibition at 10 µM.
On to `Cc1nnc2n1-c1ccc(Cl)cc1C(c1ccccc1)=NC2` [ALPRAZOLAM], for which the IC50 entry is given as “Not Active” and the Ki result is “Not Active”.
As to `Cn1c(=O)c2[nH]cnc2n(C)c1=O.Cn1c(=O)c2[nH]cnc2n(C)c1=O.NCCN` [AMINOPHYLLINE], the IC50 entry is “Not Active” and the Ki result is reported as “Not Active”.
Turning to `CCC1(CCC(C)C)C(=O)NC(=O)NC1=O` [AMOBARBITAL], the IC50 result is given as “Not Active” and the Ki result was “Not Active”.
For `CC1(C)S[C@@H]2[C@H](NC(=O)[C@H](N)c3ccccc3)C(=O)N2[C@H]1C(=O)O` [AMPICILLIN], the IC50 entry was “Not Active” and the Ki result is on record as “Not Active”.
For the compound `COc1ccc(C2C(=O)c3ccccc3C2=O)cc1` [ANISINDIONE], the IC50 result was “Not Active” and the Ki result is “Not Active”.
For the compound `O=C1O[C@H]([C@@H](O)CO)C(O)=C1O` [ASCORBIC ACID], the IC50 result is recorded as “Not Active” and the Ki result is reported as “Not Active”.
Consider `CC(C(=O)O)c1ccc2oc(-c3ccc(Cl)cc3)nc2c1` (stereo not given) [BENOXAPROFEN], for which the IC50 result is reported as “Not Active” and the Ki entry is “Not Active”.
Turning to `COc1ccc2cc3[n+](cc2c1OC)CCc1cc2c(cc1-3)OCO2.[Cl-]` [BERBERINE CHLORIDE], the IC50 entry is listed as “Not Active” and the Ki result is reported as “Not Active”.
Regarding `O=C(O)CCNC(=O)c1ccccc1` [BETAMIPRON], the IC50 result is given as “Not Active” and the Ki result was “Not Active”.
As to `CC(=O)Oc1ccc(C(c2ccc(OC(C)=O)cc2)c2ccccn2)cc1` [BISACODYL], the IC50 result is on record as “Not Active” and the Ki result is reported as “Not Active”.
